# From patent US8933230B2, “Phosphorus-containing group-substituted quinoline, its preparation process, medical composition containing the compounds and application” (priority 2011, dated 2015)
# How the values were obtained:
# ABL1-nonphosphorylated = biological target: T1, ABL1-nonphosphorylated (Homo sapiens, UniProt P00519); test: KinomeScan kinase panel; type: binding
# T1 construct: purchased DiscoveRx Corporation (KinomeScan)
# In short: (§1)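 The compound was profiled across a 442-kinase KinomeScan binding panel at a fixed concentration of 1000 nM; values reflect inhibitory effect at that one dose.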
# CSR1 = biological target: T2, CSR1 (Homo sapiens, UniProt O95747); test: KinomeScan kinase panel; type: binding
# T2 construct: purchased DiscoveRx Corporation (KinomeScan panel)
# In short: as §1
# CTK = biological target: T3, CTK (Homo sapiens, UniProt P42679); test: KinomeScan kinase panel; type: binding
# T3 construct: purchased DiscoveRx Corporation (KinomeScan)
# T3 sequence (P42679 whole entry): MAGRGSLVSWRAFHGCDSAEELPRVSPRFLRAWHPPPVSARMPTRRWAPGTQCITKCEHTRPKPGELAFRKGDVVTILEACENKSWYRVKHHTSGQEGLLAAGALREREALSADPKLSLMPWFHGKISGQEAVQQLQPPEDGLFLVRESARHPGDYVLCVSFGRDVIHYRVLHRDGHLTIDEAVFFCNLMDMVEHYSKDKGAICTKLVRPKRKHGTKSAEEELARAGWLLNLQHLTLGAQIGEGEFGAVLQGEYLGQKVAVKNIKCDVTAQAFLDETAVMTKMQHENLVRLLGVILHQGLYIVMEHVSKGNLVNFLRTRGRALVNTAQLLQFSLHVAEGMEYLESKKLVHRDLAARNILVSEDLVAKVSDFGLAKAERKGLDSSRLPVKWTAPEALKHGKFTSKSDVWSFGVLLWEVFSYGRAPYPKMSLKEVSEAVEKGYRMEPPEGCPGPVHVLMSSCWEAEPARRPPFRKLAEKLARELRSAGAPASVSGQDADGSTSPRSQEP
# In short: as §1
# FAK = biological target: T4, FAK (Homo sapiens, UniProt Q05397); test: KinomeScan kinase panel; type: binding
# T4 construct: purchased DiscoveRx Corporation (KinomeScan)
# In short: as §1
# FLT4 = biological target: T5, FLT4 (Homo sapiens, UniProt P35916); test: KinomeScan kinase panel; type: binding
# T5 construct: purchased DiscoveRx Corporation (KinomeScan)
# In short: as §1
# GAK = biological target: T6, GAK (Homo sapiens, UniProt O14976); test: KinomeScan kinase panel; type: binding
# T6 construct: purchased DiscoveRx Corporation (KinomeScan)
# In short: as §1
# MYLK = biological target: T7, MYLK (Homo sapiens, UniProt Q15746); test: KinomeScan kinase panel; type: binding
# T7 construct: purchased DiscoveRx Corporation (KinomeScan)
# In short: as §1
# PIK3CA(Q546K) = biological target: T8, PIK3CA(Q546K) (Homo sapiens, UniProt P42336, Q546K); test: KinomeScan kinase panel; type: binding
# T8 construct: purchased DiscoveRx Corporation (KinomeScan)
# In short: as §1
# PRKR = biological target: T9, PRKR (Homo sapiens, UniProt P19525); test: KinomeScan kinase panel; type: binding
# T9 construct: purchased DiscoveRx Corporation (KinomeScan)
# T9 sequence (P19525 whole entry): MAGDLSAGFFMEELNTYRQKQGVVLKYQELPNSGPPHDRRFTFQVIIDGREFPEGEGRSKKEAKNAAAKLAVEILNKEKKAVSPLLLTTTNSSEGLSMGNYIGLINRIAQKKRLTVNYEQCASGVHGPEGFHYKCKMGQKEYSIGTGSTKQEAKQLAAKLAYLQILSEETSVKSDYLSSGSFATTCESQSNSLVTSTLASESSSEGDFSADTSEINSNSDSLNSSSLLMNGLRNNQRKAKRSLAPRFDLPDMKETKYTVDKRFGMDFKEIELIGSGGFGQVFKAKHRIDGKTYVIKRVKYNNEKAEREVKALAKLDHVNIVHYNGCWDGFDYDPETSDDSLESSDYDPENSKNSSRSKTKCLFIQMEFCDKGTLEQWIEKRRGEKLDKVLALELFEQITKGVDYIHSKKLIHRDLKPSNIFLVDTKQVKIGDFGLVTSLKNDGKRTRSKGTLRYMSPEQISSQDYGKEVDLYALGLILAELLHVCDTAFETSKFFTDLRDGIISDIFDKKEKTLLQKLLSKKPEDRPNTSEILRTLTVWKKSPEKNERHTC
# In short: as §1
# [1] = biological target: T10, RPS6KA4(kin.Dom.2-C-termimal) (Homo sapiens, UniProt O75676); test: KinomeScan kinase panel; type: binding
# T10 construct: kin.Dom.2; purchased DiscoveRx Corporation
# T10 sequence (O75676 411-674 limits assumed): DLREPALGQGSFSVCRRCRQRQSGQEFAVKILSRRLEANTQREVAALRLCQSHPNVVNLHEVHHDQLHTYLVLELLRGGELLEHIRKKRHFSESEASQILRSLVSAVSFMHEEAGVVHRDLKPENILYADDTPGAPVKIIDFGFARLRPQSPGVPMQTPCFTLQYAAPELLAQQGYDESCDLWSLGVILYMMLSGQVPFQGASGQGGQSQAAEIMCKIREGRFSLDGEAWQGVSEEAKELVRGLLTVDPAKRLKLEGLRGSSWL
# In short: as §1
# STK39 = biological target: T11, STK39 (Homo sapiens, UniProt Q9UEW8); test: KinomeScan kinase panel; type: binding
# T11 construct: purchased DiscoveRx Corporation (KinomeScan)
# In short: as §1
# TBK1 = biological target: T12, TBK1 (Homo sapiens, UniProt Q9UHD2); test: KinomeScan kinase panel; type: binding
# T12 construct: purchased DiscoveRx Corporation (KinomeScan)
# In short: as §1
# WEE1 = biological target: T13, WEE1 (Homo sapiens, UniProt P30291); test: KinomeScan kinase panel; type: binding
# T13 construct: purchased DiscoveRx Corporation (KinomeScan service)
# T13 sequence (P30291 whole entry): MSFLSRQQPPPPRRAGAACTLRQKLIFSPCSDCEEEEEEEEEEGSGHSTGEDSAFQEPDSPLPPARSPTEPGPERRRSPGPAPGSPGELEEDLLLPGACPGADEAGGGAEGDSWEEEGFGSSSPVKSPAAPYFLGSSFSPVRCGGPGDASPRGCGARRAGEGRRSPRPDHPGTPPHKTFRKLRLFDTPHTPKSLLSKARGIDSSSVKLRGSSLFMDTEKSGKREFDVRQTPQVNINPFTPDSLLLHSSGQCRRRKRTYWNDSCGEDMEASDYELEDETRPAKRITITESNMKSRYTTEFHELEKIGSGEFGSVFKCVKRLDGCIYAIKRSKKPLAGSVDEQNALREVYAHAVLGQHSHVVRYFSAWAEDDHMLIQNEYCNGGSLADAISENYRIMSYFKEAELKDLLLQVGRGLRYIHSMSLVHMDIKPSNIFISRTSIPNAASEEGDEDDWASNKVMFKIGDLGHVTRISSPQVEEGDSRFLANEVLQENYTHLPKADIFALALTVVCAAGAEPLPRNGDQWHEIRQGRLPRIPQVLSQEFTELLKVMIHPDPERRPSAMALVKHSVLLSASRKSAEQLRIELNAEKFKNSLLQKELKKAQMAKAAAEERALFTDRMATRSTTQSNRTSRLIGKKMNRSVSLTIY
# In short: as §1
# PFCDPK1 (P. falciparum) = biological target: T14, PFCDPK1 (P. falciparum) (Plasmodium falciparum, UniProt P62344); test: KinomeScan kinase panel; type: binding
# T14 construct: purchased DiscoveRx Corporation (KinomeScan)
# T14 sequence (P62344 whole entry): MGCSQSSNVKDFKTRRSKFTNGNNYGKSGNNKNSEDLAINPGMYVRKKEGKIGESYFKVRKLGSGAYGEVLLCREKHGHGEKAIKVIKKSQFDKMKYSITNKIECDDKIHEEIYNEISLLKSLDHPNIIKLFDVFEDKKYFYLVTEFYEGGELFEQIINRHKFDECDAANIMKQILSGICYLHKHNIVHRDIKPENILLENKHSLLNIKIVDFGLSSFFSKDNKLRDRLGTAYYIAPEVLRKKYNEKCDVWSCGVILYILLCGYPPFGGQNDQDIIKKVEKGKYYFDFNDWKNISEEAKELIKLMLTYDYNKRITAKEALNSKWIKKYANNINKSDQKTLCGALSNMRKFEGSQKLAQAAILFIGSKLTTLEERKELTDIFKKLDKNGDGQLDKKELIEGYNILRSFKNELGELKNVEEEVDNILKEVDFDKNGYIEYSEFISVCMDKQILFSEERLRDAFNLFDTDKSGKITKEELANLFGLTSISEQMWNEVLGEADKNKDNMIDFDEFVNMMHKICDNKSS
# PFPK5 (P. falciparum) = biological target: T15, PFPK5 (P. falciparum) (Plasmodium falciparum, UniProt P61075); test: KinomeScan kinase panel; type: binding
# T15 construct: purchased DiscoveRx Corporation (KinomeScan)
# T15 sequence (P61075 whole entry): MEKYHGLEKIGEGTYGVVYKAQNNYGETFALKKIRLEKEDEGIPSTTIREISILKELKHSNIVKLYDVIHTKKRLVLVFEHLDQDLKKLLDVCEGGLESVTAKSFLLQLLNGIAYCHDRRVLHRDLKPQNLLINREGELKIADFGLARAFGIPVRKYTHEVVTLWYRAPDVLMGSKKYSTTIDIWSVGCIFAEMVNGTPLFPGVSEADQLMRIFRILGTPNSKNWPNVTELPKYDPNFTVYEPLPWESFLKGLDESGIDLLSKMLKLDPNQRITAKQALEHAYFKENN
# PKNB (M. tuberculosis) = biological target: T16, PKNB (M. tuberculosis) (Mycobacterium tuberculosis, UniProt P9WI81); test: KinomeScan kinase panel; type: binding
# T16 construct: purchased DiscoveRx Corporation (KinomeScan)
# T16 sequence (P9WI81 whole entry): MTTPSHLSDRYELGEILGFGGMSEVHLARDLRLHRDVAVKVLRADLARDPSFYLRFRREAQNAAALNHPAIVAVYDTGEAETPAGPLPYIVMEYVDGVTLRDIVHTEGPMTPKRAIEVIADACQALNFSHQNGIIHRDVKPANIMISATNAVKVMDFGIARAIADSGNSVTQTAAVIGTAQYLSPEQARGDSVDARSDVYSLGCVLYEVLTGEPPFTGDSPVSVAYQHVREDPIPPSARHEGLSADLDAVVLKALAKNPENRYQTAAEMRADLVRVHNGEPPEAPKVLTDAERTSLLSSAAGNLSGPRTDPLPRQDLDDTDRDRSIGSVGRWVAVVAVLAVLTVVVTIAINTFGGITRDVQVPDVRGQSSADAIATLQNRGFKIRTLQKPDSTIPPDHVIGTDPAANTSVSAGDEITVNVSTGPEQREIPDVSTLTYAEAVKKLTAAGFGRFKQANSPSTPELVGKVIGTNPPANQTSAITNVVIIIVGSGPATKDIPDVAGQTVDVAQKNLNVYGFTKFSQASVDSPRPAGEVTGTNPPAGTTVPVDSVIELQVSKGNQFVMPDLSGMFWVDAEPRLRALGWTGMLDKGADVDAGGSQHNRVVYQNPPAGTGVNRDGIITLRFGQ
# c-MET = biological target: T17, c-MET (Homo sapiens, UniProt P08581); test: c-MET kinase phosphorylation in MKN45 cells (sandwich ELISA); type: cell-based; conditions: without stimulation, mean value of two testing results, read-out: IC50 values in the cell, c-MET
# T17 construct: cell line MKN45 having endogenous high expression wild type c-MET; endogenous in cells; host or cells: MKN45
# Experimental: (§2) Inhibitory activity on the kinases in tumor cells: In this example, the compound prepared in Example 10, N1-[4-[[7-[[1-(diethoxyphosphorylmethyl)-4-piperidinyl]methoxyl]-6-methoxyl-4-quinolyl]oxyl]-3-fluorophenyl]-N1′-(4-fluorophenyl)cyclopropane-1,1-dicarboxamide is tested in tumor cells by ProQinase GmbH corporation (Breisacher Str. 117, D-79106 Freiburg, Germany. www.proqinase.com) for the inhibitory activity on the following kinases: c-KIT, c-MET, VEGFR2 and PDGFR-β. The test includes the following steps:
# (§3) Firstly, the compound according to present invention is dissolved in dimethyl sulfoxide (DMSO) to prepare a 10 mM stock solution, which is diluted serially according to the concentration range shown in Table 6:
# c-MET kinase: in the test experiment of c-MET kinase phosphorylation in the cells, human gastric cancer cell line MKN45 having endogenous high expression wild type c-MET (wild-type c-MET) is used. Such high expression of c-MET causes the tyrosine of c-MET receptor kinases constantly self-phosphorylated without ligands. MKN45 cells are inoculated in DMEM culture solution containing 10% FCS in a multi-well cell culture dish. The compound of the invention is added to the cells after serum overnight starvation, then the cells are cultured in a medium without serum. […]
# VEGFR2 [2] = biological target: T18, VEGFR2 (Homo sapiens, UniProt P35968); test: KinomeScan kinase panel; type: binding; parameters: purchased DiscoveRx Corporation (KinomeScan service)
# T18 sequence (P35968 20-1356): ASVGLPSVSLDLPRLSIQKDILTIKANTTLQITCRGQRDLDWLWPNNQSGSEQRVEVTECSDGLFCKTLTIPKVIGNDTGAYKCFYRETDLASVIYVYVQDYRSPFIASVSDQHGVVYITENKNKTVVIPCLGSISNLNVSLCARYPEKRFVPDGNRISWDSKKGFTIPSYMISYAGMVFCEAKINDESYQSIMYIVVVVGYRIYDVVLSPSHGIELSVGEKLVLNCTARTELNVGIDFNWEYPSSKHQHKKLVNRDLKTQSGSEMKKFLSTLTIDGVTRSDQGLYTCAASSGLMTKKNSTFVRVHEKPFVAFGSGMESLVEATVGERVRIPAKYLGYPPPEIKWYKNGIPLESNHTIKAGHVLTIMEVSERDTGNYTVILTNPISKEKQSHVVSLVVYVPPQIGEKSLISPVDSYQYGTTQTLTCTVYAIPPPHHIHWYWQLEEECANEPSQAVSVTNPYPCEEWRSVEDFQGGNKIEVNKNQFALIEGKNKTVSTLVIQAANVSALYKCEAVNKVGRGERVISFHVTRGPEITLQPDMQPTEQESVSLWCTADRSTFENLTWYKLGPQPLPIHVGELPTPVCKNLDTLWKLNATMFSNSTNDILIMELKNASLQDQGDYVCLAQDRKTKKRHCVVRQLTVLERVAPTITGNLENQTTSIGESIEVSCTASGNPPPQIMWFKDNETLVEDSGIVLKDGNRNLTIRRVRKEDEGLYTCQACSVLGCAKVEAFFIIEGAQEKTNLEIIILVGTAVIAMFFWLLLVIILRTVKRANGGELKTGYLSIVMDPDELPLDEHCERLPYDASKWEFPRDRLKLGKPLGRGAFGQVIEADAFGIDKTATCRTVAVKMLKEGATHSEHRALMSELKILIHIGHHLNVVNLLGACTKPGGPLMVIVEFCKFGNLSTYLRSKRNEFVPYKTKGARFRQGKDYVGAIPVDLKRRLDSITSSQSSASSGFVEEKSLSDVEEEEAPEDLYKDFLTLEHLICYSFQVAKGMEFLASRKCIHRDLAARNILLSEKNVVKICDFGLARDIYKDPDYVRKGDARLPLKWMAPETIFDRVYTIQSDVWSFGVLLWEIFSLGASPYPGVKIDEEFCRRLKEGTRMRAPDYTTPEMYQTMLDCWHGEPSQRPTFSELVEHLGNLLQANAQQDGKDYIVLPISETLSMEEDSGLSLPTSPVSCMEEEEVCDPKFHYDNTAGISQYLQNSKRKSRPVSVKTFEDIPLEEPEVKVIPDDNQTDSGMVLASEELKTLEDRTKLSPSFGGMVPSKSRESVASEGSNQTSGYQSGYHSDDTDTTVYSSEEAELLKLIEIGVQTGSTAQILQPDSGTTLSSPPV
# Experimental: In this example, the compound prepared in Example 10, N1-[4-[[7-[[1-(diethoxyphosphorylmethyl)-4-piperidinyl]methoxyl]-6-methoxyl-4-quinolyl]oxyl]-3-fluorophenyl]-N1′-(4-fluorophenyl)cyclopropane-1,1-dicarboxamide is tested for the inhibitory effect in the 442-kinase panel of KinomeScan™ (www.kinomescan.com) from DiscoveRx Corporation (4215 Sorrento Valley Blvd, San Diego, Calif. 92121) at 1000 nM of the compound concentration, the results are shown in the following Table 5:
# For the detailed information of the screening technique, see Fabian, M. A. et al, Nat., Biotechnol. 2005, 23, 329 and Karaman, M. W. et al, Nat., Biotechnol. 2008, 26, 127. It can be seen from the following representative results that, the compound according to the present invention has significant inhibitory effect on kinases including c-Met, KDR or VEGFR2, RET, PDGFR-β, c-KIT, Flt3, MEK5, DDR1, LOK, CSF1R, EPHA7, EPHA8, EPHB6, MKNK2, BLK, HIPK4, HCK, Flt4 and the mutants thereof
# VEGFR2 [3] = biological target: T18, VEGFR2; test: VEGFR2 kinase phosphorylation in HUE cells (sandwich ELISA); type: cell-based; parameters: cell line HUE having endogenous high expression vascular endothelial growth factor-R2 (VEGFR2); endogenous in cells; host or cells: HUE; conditions: VEGF-A 100 ng/mL 3 min, mean value of two testing results, read-out: IC50 values in the cell, VEGFR2
# Experimental: as §2, §3
# VEGFR2 kinase: in the test experiment of VEGFR2 kinase phosphorylation in the cells, a spontaneous immortalized human umbilical vein endothelial cell line HUE having endogenous high expression vascular endothelial growth factor-R2 (VEGFR2) is used. When these cells are simulated with human vascular endothelial growth factor-A (VEGF-A), it causes the tyrosine of VEGFR2 receptor kinases self-phosphorylated. HUE cells are inoculated in endothelial cell growth medium (ECGM) containing 10% FCS in a multi-well cell culture dish. […]
structure (smiles),measurement,setting,value
"CCOP(=O)(CN1CCC(COc2cc3nccc(Oc4ccc(NC(=O)C5(C(=O)Nc6ccc(F)cc6)CC5)cc4F)c3cc2OC)CC1)OCC [Example 10, N1-[4-[[7-[[1-(diethoxyphosphorylmethyl)-4-piperidinyl]methoxyl]-6-methoxyl-4-quinolyl]oxyl]-3-fluorophenyl]-N1′-(4-fluorophenyl)cyclopropane-1,1-dicarboxamide]",% Ctrl@1000 nM,ABL1-nonphosphorylated,1.8 % Ctrl
same,% Ctrl@1000 nM,CSR1,96 % Ctrl
same,% Ctrl@1000 nM,CTK,100 % Ctrl
same,% Ctrl@1000 nM,FAK,51 % Ctrl
same,% Ctrl@1000 nM,FLT4,0.2 % Ctrl
same,% Ctrl@1000 nM,GAK,100 % Ctrl
same,% Ctrl@1000 nM,MYLK,100 % Ctrl
same,% Ctrl@1000 nM,PIK3CA(Q546K),100 % Ctrl
same,% Ctrl@1000 nM,PRKR,100 % Ctrl
same,% Ctrl@1000 nM,[1],100 % Ctrl
same,% Ctrl@1000 nM,STK39,100 % Ctrl
same,% Ctrl@1000 nM,TBK1,79 % Ctrl
same,% Ctrl@1000 nM,WEE1,100 % Ctrl
same,% Ctrl@1000 nM,PFCDPK1 (P. falciparum),84 % Ctrl
same,% Ctrl@1000 nM,PFPK5 (P. falciparum),100 % Ctrl
same,% Ctrl@1000 nM,PKNB (M. tuberculosis),96 % Ctrl
same,IC50,c-MET,17 nM
same,% Ctrl@1000 nM,VEGFR2 [2],3.9 % Ctrl
same,IC50,VEGFR2 [3],0.43 nM
